Reference: patent US9284303B2, “Benzimidazole cannabinoid agonists bearing a substituted heterocyclic group” (priority 2006, dated 2016)
Read-outs that look alike come from different tables or passages of the source.

Columns and labels:
[1] = target: T1, human CB1 (hCB1) receptor (Homo sapiens, UniProt P21554); assay: Inhibition of forskolin-activated cAMP production upon activation of hCB1 (HTRF), CHO-K1 cells; assay type: cell-based; conditions: CB1 pEC50, hCB1-CHO-K1 cells, forskolin-activated cAMP, pEC50=-log(EC50)
T1 construct: expressed in transfected cells; host or cells: CHO-K1
T1 sequence (P21554 whole entry): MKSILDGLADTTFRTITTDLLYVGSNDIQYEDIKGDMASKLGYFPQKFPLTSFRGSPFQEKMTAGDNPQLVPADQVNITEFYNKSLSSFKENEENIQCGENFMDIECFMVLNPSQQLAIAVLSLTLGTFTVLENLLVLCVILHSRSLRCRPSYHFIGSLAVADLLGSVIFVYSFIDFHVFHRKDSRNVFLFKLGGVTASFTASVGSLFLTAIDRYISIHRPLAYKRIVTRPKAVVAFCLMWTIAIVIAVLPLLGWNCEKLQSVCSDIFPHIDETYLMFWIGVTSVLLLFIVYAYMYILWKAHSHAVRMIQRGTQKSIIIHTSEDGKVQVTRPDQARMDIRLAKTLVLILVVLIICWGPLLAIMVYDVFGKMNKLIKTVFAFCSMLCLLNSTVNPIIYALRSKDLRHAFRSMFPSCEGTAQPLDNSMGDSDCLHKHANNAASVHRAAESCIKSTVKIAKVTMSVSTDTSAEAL
Protocol: (§1) Functional activity of the test compounds was assessed by measuring their potency to inhibit forskolin-activated cAMP production upon activation of the human CB1 (hCB1) or human CB2 (hCB2) receptor through homogenous time resolved fluorescence (HTRF) assays.
CHO-K1 cells stably transfected with either hCB1 or hCB2 were grown up to 80-90% confluence in T175 Falcon flasks in DMEM/NUT MIX F-12 culture medium complemented with 2% Solution A (5.10^6 IU/l penicillin G, 5 g/l streptomycin sulphate, 5.5 g/l pyruvate, 14.6 g/l L-glutamine, 1M NaOH) and 10% foetal calf serum. Before the experiments, medium was removed, cells were washed with PBS/EDTA (140 mM NaCl, 1 mM Naz-EDTA, 8 mM Na2HPO4.2H2O, 8.5 mM KH2PO4, 2.7 mM KCl, 21 mM glucose), resuspended in stimulation buffer (HBSS 1x, IBMX 1 mM, Hepes 5 mM, MgCl2 10 mM, BSA 0.1%, pH 7.4). Cells were diluted to a concentration of 8.10^5 cell/ml for hCB1 experiments and 10^6 cells/ml for hCB2 experiments. Assays were performed using the cAMP Dynamic HTRF kit (CIS bio international, France) according to the recommendations of the manufacturer.
For CB1, each well of a 96 flat bottom black polystyrene assay plate (Costar) was filled with 25 μl stimulation buffer containing 6 μM forskolin and either test compound (in 2% DMSO), 2% DMSO or 2 μM CP55490 (in 2% DMSO). Then, 25 μl of the diluted cells was added (20,000 cells/well). After 30 minutes incubation in dark at room temperature, 25 μl cAMP-XL665 and 25 μl anti-cAMP cryptate (both at a final dilution of 1/80) was added to the cells.
After equilibration of the reaction mixtures for 1 to 24 hours in dark at room temperature, fluorescence was measured at 665 nm and 620 nm using a Discovery microplate fluorescence counter (Perkin Elmer), and the signal ratio of 665 nm/620 nm was calculated. The signal ratios of the test compounds were expressed relative to the signal ratios of the DMSO control (maximal signal ratio, no inhibition of cAMP) and CP55490 or WIN55212-2 for hCB1 and hCB2, respectively (minimal signal ratio, maximal inhibition of cAMP). From the dose response curves generated for each test compound, the dose at which 50% of the maximal inhibition of cAMP level is observed (EC50, expressed in the Tables as pEC50=−log(EC50) values) and the level of inhibition reached with 10 μM of the test compound compared to CP55490 (for hCB1) or WIN55212-2 (for hCB2) was calculated.

[2] = target: T2, human CB2 (hCB2) receptor (Homo sapiens, UniProt P34972); assay: Inhibition of forskolin-activated cAMP production upon activation of hCB2 (HTRF), CHO-K1 cells; assay type: cell-based; conditions: for ratio CB2 agonism over CB1 agonism: Table C-1, selectivity hCB2 over hCB1; for EC50: forskolin-activated cAMP, pEC50=-log(EC50)
T2 construct: expressed in transfected cells; host or cells: CHO-K1
T2 sequence (P34972 whole entry): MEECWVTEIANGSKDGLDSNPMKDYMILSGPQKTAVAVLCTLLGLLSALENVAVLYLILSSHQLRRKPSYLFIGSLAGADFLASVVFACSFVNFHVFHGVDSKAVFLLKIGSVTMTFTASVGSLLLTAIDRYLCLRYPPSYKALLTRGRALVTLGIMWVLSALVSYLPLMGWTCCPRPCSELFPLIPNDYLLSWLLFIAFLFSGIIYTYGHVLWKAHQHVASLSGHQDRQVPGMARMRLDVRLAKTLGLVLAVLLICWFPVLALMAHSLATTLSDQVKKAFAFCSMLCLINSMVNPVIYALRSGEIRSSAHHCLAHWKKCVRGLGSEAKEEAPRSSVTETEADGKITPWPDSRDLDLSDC
Protocol: as §1
Before the experiments, medium was removed, cells were washed with PBS/EDTA (140 mM NaCl, 1 mM Naz-EDTA, 8 mM Na2HPO4.2H2O, 8.5 mM KH2PO4, 2.7 mM KCl, 21 mM glucose), resuspended in stimulation buffer (HBSS 1x, IBMX 1 mM, Hepes 5 mM, MgCl2 10 mM, BSA 0.1%, pH 7.4). Cells were diluted to a concentration of 8.10^5 cell/ml for hCB1 experiments and 10^6 cells/ml for hCB2 experiments. Assays were performed using the cAMP Dynamic HTRF kit (CIS bio international, France) according to the recommendations of the manufacturer.
Then, 20 μl of the diluted hCB2-CHO-K1 cells was added (20,000 cells/well). After 30 minutes incubation in dark at room temperature, 10 μl cAMP-XL665 and 10 μl anti-cAMP cryptate (both at a final dilution of 1/100) was added to the cells.

[3] = hCB2-CHO-K1 cells, read-out: CB2 pEC50 (converted)

Row | SMILES | EC50 [1] | ratio CB2 agonism over CB1 agonism [2] | EC50 [2, 3] | EC50 ([2]; CB2 pEC50, hCB2-CHO-K1 cells) | melting point | ratio CB2 over CB1 agonism ([2]; Table C-3, comparison of art compounds A to E with compounds of the invention)
1 | CC(C)(C)c1nc2cc(S(=O)(=O)c3ncc(C(F)(F)F)cc3Cl)ccc2n1CC1CCOCC1 [Co. No. 61] | 151 nM | 135 | 1.12 nM |  |  | 
2 | CC(C)(C)c1nc2cc(S(=O)(=O)c3ccnc(OCCCN4CCOCC4)c3)ccc2n1CC1CCOCC1 [Co. No. 135] | > 10000 nM | >4571 | 2.19 nM |  |  | 
3 | COCCCn1cc(S(=O)(=O)c2ccc3c(c2)nc(C(C)(C)C)n3CC2CCOCC2)cn1 [Co. No. 161] | 5250 nM | 2951 | 1.82 nM |  |  | 
4 | CC(C)(C)c1nc2cc(S(=O)(=O)c3ccc(C(N)=O)cn3)ccc2n1CC1CCOCC1 [Co. No. 33] | 5750 nM | 1884 | 3.09 nM |  |  | 
5 | CO[C@H]1CC[C@H](Cn2c(C(C)(C)C)nc3cc(S(=O)(=O)c4ccnc(F)c4)ccc32)CC1 [Co. No. 160] | > 10000 nM | >2344 | 4.27 nM |  |  | 
6 | CC(C)(C)c1nc2cc(S(=O)(=O)c3ccc[n+]([O-])c3)ccc2n1CC1CCOCC1 [Co. No. 34] | 7410 nM | 4732 |  | 1.58 nM |  | 
7 | CC(=O)NCCCOc1cc(S(=O)(=O)c2ccc3c(c2)nc(C(C)(C)C)n3CC2CCOCC2)ccn1 [Co. No. 132] | > 10000 nM | >7079 | 1.41 nM |  |  | 
8 | COc1cc(S(=O)(=O)c2ccc3c(c2)nc(C(C)(C)C)n3CC2CCC(F)(F)CC2)ccn1 [Co. No. 122] | 100 nM | 102 | 0.977 nM |  |  | 
9 | CC(C)(C)c1nc2cc(S(=O)(=O)c3ccnc(F)c3)ccc2n1CCCC(F)(F)F |  |  |  |  | 138.9 °C | 
10 | CC(C)(C)c1nc2cc([S+]([O-])c3cc[n+]([O-])cc3C(F)(F)F)ccc2n1CC1CCOCC1 (stereo not drawn) [Co. No. 95] | > 10000 nM |  | 5.75 nM |  |  | 
11 | CC(C)(C)c1nc2cc(S(=O)(=O)c3ccnc(/C=C/Cl)c3)ccc2n1CC1CCOCC1 [Co. No. 125] | > 10000 nM | >3981 | 2.51 nM |  |  | 
12 | CC(=O)N1CCC(Cn2c(C(C)(C)C)nc3cc(S(=O)(=O)c4ccnc(F)c4)ccc32)CC1 |  |  |  |  | 193.9 °C | 
13 | CC(C)(C)c1nc2cc(S(=O)(=O)c3ccnc(O)c3)ccc2n1CCCC(F)(F)F |  |  |  |  | 277.5 °C | 
14 | CC(C)(C)c1nc2cc(S(=O)(=O)c3ccnc(CCCCN)c3)ccc2n1CC1CCOCC1 [Co. No. 139] | > 10000 nM | >759 | 13.2 nM |  |  | 
15 | COc1ncc(S(C)(=O)=O)cc1S(=O)(=O)c1ccc2c(c1)nc(C(C)(C)C)n2CC1CCOCC1 [Co. No. 78] | > 10000 nM | >1380 | 7.24 nM |  |  | 
16 | CC(C)(C)c1nc2cc(S(=O)(=O)c3ccnc(F)c3)ccc2n1C[C@H]1CC[C@@](C)(O)CC1 [Co. No. 153] | > 10000 nM | >11749 | 0.851 nM |  |  | 
17 | CC(C)(C)OC(=O)NCCCOc1cc(S(=O)(=O)c2ccc3c(c2)nc(C(C)(C)C)n3CC2CCOCC2)ccn1 [Co. No. 130] | > 10000 nM | >4315 | 2.29 nM |  |  | 
18 | CC(C)(C)c1nc2cc(S(=O)(=O)c3ccc(CN)nc3)ccc2n1CC1CCOCC1 [Co. No. 116] | 5750 nM | 966 | 5.89 nM |  |  | 
19 | CC(C)(C)c1nc2cc(S(=O)(=O)c3ccnc(C(F)(F)F)c3)ccc2n1CC1CCOCC1 [Co. No. 119] | > 10000 nM | >1413 | 7.08 nM |  |  | 
20 | CC(C)(C)c1nc2cc(S(=O)(=O)c3ccnc(F)c3)ccc2n1CC1CCOCC1 [Co. No. 25] | 407 nM | 495 | 0.813 nM |  |  | 495
